Experimental data as given in patent US4485100A, “Elastase inhibitors, a process for their preparation and medicaments containing these inhibitors” (Bayer Aktiengesellschaft, priority 1982, dated 1984).

Tested on: Wistar rats
Test: Aerosil-induced inflammatory reaction, paw swelling
Assay type: in vivo, rat
Conditions: treated 15 hours after noxa, 21 hour value
Experimental: The inflammatory reaction was induced by intraplantary injection of 0.1 ml of a 2% Aerosil suspension into a hind paw of Wistar rats weighing 130-160 g. The inhibitors according to the invention used for the treatment of the inflammatory reaction were dissolved in 0.9% sodium chloride solution in a concentration of 10-20 mg/ml. The experimental animals were treated by intraperitoneal, subcutaneous or intravenous injection of 0.5-1.0 ml of the solution of the inhibitors 15 hours after the inflammatory noxa had been set. The swelling of the inflamed paw, which is a measure of the severity of the inflammatory reaction, was followed with respect to time using a Kemper antiphlogmeter. The 21 hour value after the induction of inflammation (=6 hours after injection of the inhibitors according to the invention) was determined to ascertain the dose/effect relationship.

## basic pancreatic trypsin inhibitor [BPTI]
  Inhibition of the inflammatory reaction, swelling of inflamed paw: does not inhibit the inflammatory reaction
